The test system of test [1] is Tg-1. The experiment in a line: Tg-1 expression by indirect immunofluorescence microscopy. In kind it is cell-based, human. The source says:
(§1) In addition, expression of Inv and Tg-1 was examined by indirect immunofluorescence microscopy (FIG. 3).

Test [2] relates to CD36/FAT. The test is described as follows: CD36/FAT mRNA expression in NHK treated with PPAR activators and TTA. The following applies: NHK treated over a period of three days. It is filed as cell-based, human. How it is done: (§2) Normal adult human epidermal keratinocytes were isolated from human skin obtained after plastic surgery. First passage keratinocytes were grown in serum-free KGM (GIBCO BRL/Life Technologies, Inc.) and replated in 75 cm^2 culture flask or in 96-well microtiterplates preheated at 37° C. at a density of 3500 cells/well. Cells were incubated in a humidified atmosphere of 5% CO2 at 37° C. When cells reached 40% confluence they were treated with growth medium containing selective PPAR ligands (either alone or in combinations as indicated), tetradecylthioacetic acid (TTA) or 1,2 mM Ca^2+. Wy14643 was obtained from Calbiochem, BRL49653 was kindly provided by J. Fleckner, Novo Nordisk), L165041 was kindly provided by D. E. Moller (Merck Research Laboratories, Rahway, N.J.). TTA was manufactured in accordance with example 1. Medium was changed every day. For differentiation, keratinocytes at 40% confluence (day 0) were treated with 1,2 mM CaCl2. Medium was changed every other day. HaCaT cells were obtained from L. Aarenstrup (Danish Cancer Society, Denmark). HaCaT cells were cultured in Dulbecco's modified Eagle's Medium (DMEM) with 10% fetal calf serum (FCS) and antibiotics (100 u/ml penicillin, 1 mg/ml streptomycin sulphate) in a humidified atmosphere of 5% CO2 at 37° C. Medium was changed every other day.
(§3) To evaluate how TTA and the various PPAR activators affected expression of a known PPAR responsive gene and differentiation of keratinocytes, we first measured the mRNA levels of CD36/FAT and the two differentiation markers, Inv and Tg-1 in NHK treated with PPAR selective activators and TTA over a period of three days (FIG. 1a).

In test [3] the test system is transglutaminase type 1 (Tg-1). The test is described as follows: Tg-1 expression by ELISA. It is filed as cell-based, human. The following applies: normalized to cell number. How it is done:
as §2, with “HaCaT cells were obtained from L. Aarenstrup (Danish Cancer Society, Denmark). HaCaT cells were cultured in Dulbecco's modified Eagle's Medium (DMEM) with 10% fetal calf serum (FCS) and antibiotics (100 u/ml penicillin, 1 mg/ml streptomycin sulphate) in a humidified atmosphere of 5% CO2 at 37° C. Medium was changed every other day.” left out
Cells were subjected to two freeze-thaw cycles and transglutaminase type 1 (Tg-1) was determined by ELISA. […] The amount of transglutaminase was measured by quantifying the OPD reaction with an ELISA-reader at 490 nm and subtracting background at 650 nm. […]
(§4) Differentiation of keratinocytes is correlated with an increase in cell size. […] In parallel the expression of Tg-1 was monitored using an ELISA-based assay (FIG. 3b).
A general note: In an ELISA, binding on a coated surface is turned into a signal by an enzyme label.

Test [4] has as its system NHK cells. The test is described as follows: Viability/proliferation by modified MTT assay. It is filed as cell-based, human. How it is done:
as §2, with “HaCaT cells were obtained from L. Aarenstrup (Danish Cancer Society, Denmark). HaCaT cells were cultured in Dulbecco's modified Eagle's Medium (DMEM) with 10% fetal calf serum (FCS) and antibiotics (100 u/ml penicillin, 1 mg/ml streptomycin sulphate) in a humidified atmosphere of 5% CO2 at 37° C. Medium was changed every other day.” left out
Viability/proliferation was measured by a modification of the MTT assay introduced by Mosmann T (J Immunol Methods 65:55–63, 1983). […] The amount of formazan was quantified in an ELISA-reader at 540 nm. […]
as §4

The test system of test [5] is Inv. The test is described as follows: Inv expression by indirect immunofluorescence microscopy. In kind it is cell-based, human.
Text: as §1

Test [6] has as its system Inv. The experiment in a line: Inv mRNA expression in NHK (RT-PCR). In kind it is cell-based, human. The following applies: NHK treated over a period of three days. How it is done:
as §2, with “HaCaT cells were cultured in Dulbecco's modified Eagle's Medium (DMEM) with 10% fetal calf serum (FCS) and antibiotics (100 u/ml penicillin, 1 mg/ml streptomycin sulphate) in a humidified atmosphere of 5% CO2 at 37° C. Medium was changed every other day.” left out
as §3

The subject of test [7] is human keratinocytes. The experiment in a line: Keratinocyte differentiation marker gene expression (summary statements). In kind it is cell-based. How it is done:
In the present study we have in detail analyzed the expression of the PPARs during ex vivo differentiation of human keratinocytes, in isolated basal and suprabasal cells, and in sections of human skin. […] All three PPAR subtype selective ligands either alone or in combination only modestly effected keratinocyte proliferation.
as §2, with “HaCaT cells were cultured in Dulbecco's modified Eagle's Medium (DMEM) with 10% fetal calf serum (FCS) and antibiotics (100 u/ml penicillin, 1 mg/ml streptomycin sulphate) in a humidified atmosphere of 5% CO2 at 37° C. Medium was changed every other day.” left out

For test [8], the system named is Inv. The experiment in a line: Inv protein expression in NHK by Western blotting. It is filed as cell-based, human. As for the experimental part:
as §2

Regarding `[Ca+2].[Cl-].[Cl-]` [CaCl2], the Tg-1 expression result in test [1] is listed as “comparable levels of expression”; in test [3] it was “significantly induced Tg-1 expression”. The “expression of CD36/FAT mRNA” value in test [2] is recorded as “did not induce expression of CD36/FAT”. In addition, the “inhibition of NHK cell proliferation” value in test [4] is recorded as “only marginal”. In addition, the Inv expression entry in test [5] is recorded as “comparable levels of expression”.
Regarding `Cc1cccc(Nc2cc(Cl)nc(SCC(=O)O)n2)c1C` [Wy14643], the “Inv mRNA expression” value in test [6] is “modest induction of Inv mRNA expression”. In addition, the “expression of CD36/FAT mRNA” value in test [2] is recorded as “induced expression of CD36/FAT”.
Take `CCCc1c(OCCCOc2ccc(OCC(=O)O)cc2)ccc(C(C)=O)c1O` [L165041]: the “keratinocyte differentiation marker gene expression” value in test [7] is on record as “induced in a dose-dependent manner expression of involucrin”. In addition, the Inv protein expression result in test [8] is “dose-dependent induction of Inv protein”. Further, the “Inv mRNA expression” value in test [6] is recorded as “dose-dependent induction of Inv mRNA expression”. In test [2], the “expression of CD36/FAT mRNA” value is given as “induced a significant dose-dependent expression of CD36”. In addition, the Inv expression entry in test [5] is on record as “in a dose-dependent manner induced Inv expression”.

Source of the values: patent US7230029B2, “Fatty acid analogues for the treatment of proliferative skin disorders” (Thia Medica AS, priority 2000, dated 2007).
